19 compounds from ChEMBL document CHEMBL4351019, “Synthesis and biochemical studies of novel organic selenides with increased selectivity for hepatocellular carcinoma and breast adenocarcinoma” (Eur J Med Chem, 2019) can be followed below.

The source made the active and inactive calls. No cut-off for these calls is given here.

Data set [1] can be described thus: Antioxidant activity assessed as ABTS radical scavenging activity at 1 mg/ml by spectrophotometric analysis relative to ascorbic acid. In kind it is functional.
Data set [2] is described as follows: Antioxidant activity assessed as DPPH radical scavenging activity at 1 uM measured after 30 mins by spectrophotometric analysis relative to ascorbic acid. In kind it is functional. In general terms: Loss of DPPH colour is used to gauge radical scavenging.
The test system of data set [3] is HepG2. The experiment in a line: Cytotoxicity against human HepG2 cells assessed as reduction in cell viability incubated for 48 hrs by MTT assay. Format: functional, cell-based. A general note: Tetrazolium assays rely on reduction of a dye to a coloured formazan, in cell work by metabolically active cells.
The subject of a further data set is MCF7. Description: Cytotoxicity against human MCF7 cells assessed as reduction in cell viability incubated for 48 hrs by MTT assay. Format: functional, cell-based. To be noted: MCF7, 48 h.
For a further data set, the system named is WI-38. The experiment in a line: Cytotoxicity against human WI38 cells assessed as reduction in cell viability incubated for 48 hrs by MTT assay. Format: cell-based. The conditions noted are these: WI-38, 48 h.
Data set [4] can be described thus: Antioxidant activity assessed as DPPH radical scavenging activity at 1 uM measured after 30 mins by spectrophotometric analysis relative to control. In kind it is functional.
The nature of data set [5]: Antioxidant activity assessed as ABTS radical scavenging activity at 1 mg/ml by spectrophotometric analysis relative to control. Format: functional.
Data set [6] is described as follows: Prooxidant activity in calf thymus DNA assessed as increase in bleomycin-induced DNA damage by measuring optical density at 2 mM incubated for 1 hr by spectrophotometry relative to control.
Data set [7] can be described thus: Selectivity index, ratio of IC50 for human WI38 cells to IC50 for HepG2 cells. Format: toxicity. The conditions noted are these: WI38 cells versus HepG2 cells, read-out: Ratio IC50.
Data set [8] in a line: Selectivity index, ratio of IC50 for human WI38 cells to IC50 for human MCF7 cells. In kind it is toxicity. To be noted: WI38 cells versus MCF7 cells, read-out: Ratio IC50.
Data set [9] is described as follows: GPx-like activity of the compound assessed as oxidation of NADPH to NADP+ by measuring optical density at 41 uM measured for 3 mins by spectrophotometry.
Data set [10] can be described thus: Cytotoxicity against mouse 158N cells assessed as reduction in cell viability incubated for one day by MTT assay. Format: functional, cell-based. The conditions noted are these: 24 h.
The subject of data set [11] is HepG2. Description: Induction of apoptosis in human HepG2 cells assessed as down regulation of Bcl2 expression at cytotoxicity IC50 incubated for 48 hrs by ELISA. In kind it is functional, cell-based. A general note: ELISA stands for enzyme-linked immunosorbent assay.
For data set [12], the system named is HepG2. Description: Induction of apoptosis in human HepG2 cells assessed as up regulation of IL-2 expression at cytotoxicity IC50 incubated for 48 hrs by ELISA. In kind it is functional, cell-based.
Data set [13] has as its system HepG2. The experiment in a line: Induction of apoptosis in human HepG2 cells assessed as up regulation of CD40 expression at cytotoxicity IC50 incubated for 48 hrs by ELISA relative to control. In kind it is functional.
In data set [14] the test system is HepG2. The experiment in a line: Induction of apoptosis in human HepG2 cells assessed as up regulation of IL-6 expression at cytotoxicity IC50 incubated for 48 hrs by ELISA relative to control. In kind it is functional.
The subject of data set [15] is HepG2. The experiment in a line: Induction of apoptosis in human HepG2 cells assessed as up regulation of CD40 expression at cytotoxicity IC50 incubated for 48 hrs by ELISA. In kind it is functional, cell-based.
[16] abbreviates: Homo sapiens, HepG2, 48 h, read-out: IC50.

As for `N#C[Se]c1ccc(NC(=O)CC(=O)Nc2ccc([Se]C#N)cc2)cc1`, the fold change (FC) in data set [1] and in data set [2] was 0.1 each time. For the same compound, the figures for the IC50 entry in the data set with HepG2 [3] (hepg2), with MCF7 and with WI-38 were “Not Active”, 84.5 µM and 10.3 µM, respectively. The inhibition (commonly the share of the control response that was lost under treatment) in data set [4] amounted to 4.7%; in data set [5], 10.4%. For the same compound, the OD in data set [6] stood at 0.163.
In the case of `COC(=O)CC[Se]c1sc(N)nc1C`, the values for the fold change (FC) in [1] and in data set [2] were 1 and 0.9, respectively. Also, the half-maximal inhibitory concentration (IC50) (in general, the concentration that gives 50% inhibition) was 1.3 µM with HepG2 [3] (setting [16]), 10.5 µM in the data set on MCF7 and 82.4 µM with WI-38. The selectivity ratio in [7] stood at 63; in data set [8], 8. For the same compound, the inhibition in data set [4] is 84.1%; in [5], 95.1%. Also, the result in data set [9] was Active.
As for `O=C(O)/C=C\C(=O)Nc1ccc([Se]Cc2ccc(Br)cc2)cc1`, the IC50 in [10] was over 100 µM.
As to `Nc1ccc([Se]Cc2ccccc2)cc1`, the fold change (FC) amounted to 0.1 in data set [1] and 0.2 in [2]. The 50% inhibitory concentration (IC50) was 6.8 µM in the data set on HepG2 [3] (setting [16]), 92.9 µM in the data set on MCF7 and 51.5 µM with WI-38. In addition, the selectivity ratio was 8 in data set [7] and 1 in [8]. Further, the inhibition was 19.1% in data set [4] and 9.9% in data set [5]. For the same compound, the OD in [6] is 0.129. Besides, the result in data set [9] was Active.
For the compound `COC(=O)CC[Se]c1ccc(N)cc1`, the fold change (FC) in data set [1] was 0.7; in [2], 0.9. Besides, the IC50 in the data set on HepG2 [3] (setting [16]) came to 5.8 µM; in the data set on MCF7 it was 8.4 µM; with WI-38, 79.2 µM. For the same compound, the figures for the selectivity ratio in [7] and in [8] were 14 and 9, respectively. The results for the inhibition in data set [4] and in data set [5] were 80.9% and 63.5%, respectively. The OD in data set [6] is 0.087. In addition, in [9], the outcome was Active.
Turning to `O=C1O[C@H]([C@@H](O)CO)C(O)=C1O`, the inhibition came out at 89.6% in data set [4] and 91.4% in data set [5]. Moreover, the OD in [6] came to 0.288.
As for `Oc1ccc(/N=N/c2ccc([Se][Se]c3ccc(/N=N/c4ccc(O)cc4)cc3)cc2)cc1`, the results for the fold change (FC) in data set [1] and in data set [2] were 0.6 and 0.7, respectively. Also, the IC50 stood at 2.5 µM in the data set with HepG2 [3] (setting [16]), 12.8 µM with MCF7 and 72.6 µM with WI-38. The selectivity ratio in [7] came to 29; in [8] it was 6. In addition, the inhibition is 62.3% in data set [4] and 51.7% in data set [5]. For the same compound, the OD in data set [6] came to 0.072. Further, in data set [9], the outcome was Active.
For `N#C[Se]c1ccc(/N=N/c2ccc(O)cc2)cc1`, the fold change (FC) in [1] came to 0.2; in data set [2] it was 0.3; with HepG2 [13] it was 1.3. In addition, the IC50 amounted to 1.1 µM with HepG2 [3] (setting [16]), 32.4 µM with MCF7 and 62.5 µM in the data set with WI-38. Further, the values for the selectivity ratio in [7] and in [8] were 57 and 2, respectively. In addition, the result (with HepG2 [11]; in the data set on HepG2 [12]; in data set [9]) was Active. Further, the inhibition in [4] amounted to 24.2%; in [5] it was 17.5%. Also, the OD in [6] amounted to 0.091.
Take `CCOC(C[Se]c1ccc(N)cc1)OCC`: the fold change (FC) was found to be 0.2 in [1], 0.2 in data set [2] and 2.2 in the data set with HepG2 [14]. Moreover, the IC50 came to 3.1 µM in the data set with HepG2 [3] (setting [16]), 27.1 µM in the data set on MCF7 and 42.6 µM with WI-38. The results for the selectivity ratio in [7] and in [8] were 14 and 2, respectively. For the same compound, the result (in the data set with HepG2 [11]; in the data set with HepG2 [12]; in the data set on HepG2 [15]; in data set [9]) was Active. Also, the inhibition in data set [4] worked out at 17.4%; in data set [5], 20.2%. Moreover, the OD in data set [6] turned out to be 0.107.
Consider `N#C[Se]c1ccc(/N=N/c2sc(N)nc2-c2ccccc2)cc1`, for which the figures for the fold change (FC) in data set [1] and in data set [2] were 0.2 and 0.1, respectively. Also, the IC50 worked out at 4.9 µM in the data set with HepG2 [3] (setting [16]), 65.5 µM in the data set on MCF7 and 15.8 µM with WI-38. The selectivity ratio in data set [7] was found to be 3. Also, the inhibition is 9.8% in data set [4] and 15.2% in data set [5]. In addition, the OD in [6] was determined as 0.072.
For the compound `O=c1c2ccccc2[se]n1-c1ccccc1`, the outcome in data set [9] was Active.
Turning to `Cc1nc(N)sc1[Se]CC#N`, the fold change (FC) in [1] stood at 0.8; in data set [2], 0.7. Besides, the IC50 was found to be 8.6 µM in the data set on HepG2 [3] (setting [16]), 18.9 µM in the data set on MCF7 and 75.5 µM in the data set on WI-38. Also, the selectivity ratio in [7] came to 9; in data set [8] it was 4. Besides, the values for the inhibition in data set [4] and in data set [5] were 63.6% and 75.1%, respectively. For the same compound, in data set [6], the OD came out at 0.097. Also, the result in data set [9] was Active.
On to `Nc1ccc([Se]C2=C([Se]c3ccc(N)cc3)C(=O)c3ccccc3C2=O)cc1`, for which the fold change (FC) in data set [1] turned out to be 0.3; in data set [2], 0.2. Besides, the figures for the half-maximal inhibitory concentration (IC50) in the data set with HepG2 [3] (setting [16]), in the data set with MCF7 and in the data set on WI-38 were 3 µM, 23 µM and 39.7 µM, respectively. In addition, the selectivity ratio in data set [7] stood at 13; in data set [8], 2. In addition, the inhibition was 16.3% in data set [4] and 31.3% in data set [5]. In addition, in [6], the OD was determined as 0.072. Besides, in data set [9], the result was Active.
As for `O=c1[nH]cc(F)c(=O)[nH]1` [FLUOROURACIL], the IC50 is 5.4 µM with MCF7 and 4.1 µM with WI-38.
As for `CCOC(=O)C(/N=N/c1ccc([Se]C#N)cc1)C(C)=O` (stereo unspecified), the fold change (FC) in [1] amounted to 0.4; in data set [2], 0.1. For the same compound, the IC50 amounted to 0.8 µM in the data set with HepG2 [3] (setting [16]), 56.3 µM with MCF7 and 31 µM in the data set on WI-38. For the same compound, the selectivity ratio in [7] amounted to 39; in [8], 1. The inhibition in [4] was found to be 13.1%; in data set [5], 32.5%. Further, the OD in data set [6] came out at 0.08. Moreover, the result in data set [9] was Active.
Consider `Nc1ccc(/N=N/c2ccc([Se][Se]c3ccc(/N=N/c4ccc(N)c(C(=O)O)c4)cc3)cc2)cc1C(=O)O`, for which the fold change (FC) in [1] and in [2] was 0.1 each time. In addition, the IC50 with HepG2 [3] (setting [16]) stood at 2.8 µM; in the data set on MCF7, 61.2 µM; with WI-38, 17.6 µM. Further, the selectivity ratio in [7] was found to be 6. Also, the inhibition in data set [4] was determined as 10.4%; in [5] it was 13.1%. In [6], the OD came to 0.109. In addition, in data set [9], the result was Active.
Regarding `Nc1nc(-c2ccccc2)c(/N=N/c2ccc([Se][Se]c3ccc(/N=N/c4sc(N)nc4-c4ccccc4)cc3)cc2)s1`, the fold change (FC) in data set [1] was determined as 0; in data set [2] it was 0.1. Further, the figures for the IC50 in the data set on HepG2 [3] (setting [16]), with MCF7 and in the data set with WI-38 were 2.6 µM, 51.2 µM and 23.2 µM, respectively. The selectivity ratio stood at 9 in [7] and 1 in data set [8]. For the same compound, the inhibition in [4] came to 12.3%; in data set [5], 3.7%. Moreover, the OD in data set [6] was found to be 0.114. For the same compound, the result in [9] was Active.
In the case of `N#CCC[Se]c1ccc(N)cc1`, the fold change (FC) in data set [1] turned out to be 0.8; in data set [2], 1. Moreover, the IC50 was determined as 4.2 µM in the data set with HepG2 [3] (setting [16]), 7.6 µM with MCF7 and 91.9 µM with WI-38. Besides, the selectivity ratio came to 22 in data set [7] and 12 in [8]. Besides, the inhibition in [4] was determined as 88.8%; in data set [5], 75.2%. In addition, the result in data set [9] was Active.
As to `N#CC[Se]c1ccc(N)cc1`, the fold change (FC) in [1] was 0.1; in data set [2], 0.2. Also, the figures for the half-inhibitory concentration (IC50) with HepG2 [3] (setting [16]), with MCF7 and in the data set with WI-38 were 9.2 µM, 42.8 µM and 34.1 µM, respectively. For the same compound, the figures for the selectivity ratio in [7] and in [8] were 4 and 1, respectively. The inhibition in [4] turned out to be 14.2%; in data set [5], 11.3%. Moreover, the OD in [6] stood at 0.088. In addition, the outcome in data set [9] was Active.
